What was measured:
Plasmin = Plasmin (Homo sapiens, UniProt P00747); test: Related protease inhibition: Plasmin (fluorogenic substrate at Km); type: biochemical; conditions: class symbols per Table 18
Protocol: (§1) In vitro inhibition of related proteases was determined using an IC50 assay based on standard literature methods (see e.g. Shori et al., Biochem. Pharmacol., 1992, 43, 1209; Bouckaert et al., European Journal of Medicinal Chemistry 110 (2016) 181). Human serine protease enzyme Plasma Kallikrein, KLK1, FXa, Plasmin, Thrombin and Trypsin were assayed for enzymatic activity using an appropriate fluorogenic substrate at Km concentration, FXIa at fixed substrate concentration of 100 μM and various concentrations of the test compound. Protease activity was measured by monitoring the accumulation of liberated fluorescence from the substrate over 5 min at 25° C. The linear rate of fluorescence increase per minute was expressed as percentage (%) activity. IC50 values were calculated as the concentration of inhibitor giving 50% inhibition of the uninhibited enzyme activity (100%).

Human Factor XIIa = target: T1, Human Factor XIIa (Homo sapiens, UniProt P00748); test: Determination of FXIIa inhibition (fluorogenic substrate H-DPro-Phe-Arg-AFC, IC50 assay); type: biochemical; conditions: substrate at Km concentration, 25° C.; category scale; read-out: Human FXII IC50 (nm)
T1 construct: Proteolytic cleavage of FXII to heavy and light chains of FXIIa dramatically increases catalytic activity; purchased Enzyme Research Laboratories
T1 sequence (P00748 373-615 limits assumed): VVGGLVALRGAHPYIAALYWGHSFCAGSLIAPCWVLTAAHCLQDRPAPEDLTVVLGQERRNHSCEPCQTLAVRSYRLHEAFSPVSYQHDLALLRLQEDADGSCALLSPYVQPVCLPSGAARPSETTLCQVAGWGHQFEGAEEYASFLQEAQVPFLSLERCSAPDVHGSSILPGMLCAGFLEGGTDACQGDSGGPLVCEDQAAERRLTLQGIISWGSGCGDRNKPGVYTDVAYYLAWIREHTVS
T1 sequence (P00748 20-372 partner limits assumed): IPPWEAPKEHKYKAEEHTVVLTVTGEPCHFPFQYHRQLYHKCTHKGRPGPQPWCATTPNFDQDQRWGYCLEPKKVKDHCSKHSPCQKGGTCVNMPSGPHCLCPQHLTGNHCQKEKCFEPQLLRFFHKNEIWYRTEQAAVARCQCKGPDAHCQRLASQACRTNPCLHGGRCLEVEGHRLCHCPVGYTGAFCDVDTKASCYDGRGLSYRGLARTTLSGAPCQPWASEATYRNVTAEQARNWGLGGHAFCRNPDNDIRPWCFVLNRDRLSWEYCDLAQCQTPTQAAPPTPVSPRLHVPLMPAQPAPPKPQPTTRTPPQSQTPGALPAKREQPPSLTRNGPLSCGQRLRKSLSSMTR
Procedure, shortened: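 Human FXIIa incubated at 25° C. with fluorogenic H-DPro-Phe-Arg-AFC at its Km concentration plus varying compound levels. Linear fluorescence increase over 5 min taken as % activity; IC50 is concentration halving uninhibited activity.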

Plasma Kallikrein = target: T2, Plasma Kallikrein (Homo sapiens, UniProt P03952); test: Related protease inhibition: Plasma Kallikrein (fluorogenic substrate at Km); type: biochemical; conditions: class symbols per Table 18, read-out: IC50 (human PKal)
T2 construct: FXIIa converts plasma prekallikrein (PK) to plasma kallikrein (PKa)
T2 sequence (P03952 391-638 limits assumed): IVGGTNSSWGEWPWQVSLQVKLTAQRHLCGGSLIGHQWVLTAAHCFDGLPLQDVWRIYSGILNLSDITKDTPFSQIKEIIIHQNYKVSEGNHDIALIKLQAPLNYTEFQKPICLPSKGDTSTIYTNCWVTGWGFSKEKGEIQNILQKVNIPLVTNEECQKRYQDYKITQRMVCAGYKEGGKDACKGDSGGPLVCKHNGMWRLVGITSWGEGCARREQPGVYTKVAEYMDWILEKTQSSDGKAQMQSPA
T2 sequence (P03952 20-390 partner limits assumed): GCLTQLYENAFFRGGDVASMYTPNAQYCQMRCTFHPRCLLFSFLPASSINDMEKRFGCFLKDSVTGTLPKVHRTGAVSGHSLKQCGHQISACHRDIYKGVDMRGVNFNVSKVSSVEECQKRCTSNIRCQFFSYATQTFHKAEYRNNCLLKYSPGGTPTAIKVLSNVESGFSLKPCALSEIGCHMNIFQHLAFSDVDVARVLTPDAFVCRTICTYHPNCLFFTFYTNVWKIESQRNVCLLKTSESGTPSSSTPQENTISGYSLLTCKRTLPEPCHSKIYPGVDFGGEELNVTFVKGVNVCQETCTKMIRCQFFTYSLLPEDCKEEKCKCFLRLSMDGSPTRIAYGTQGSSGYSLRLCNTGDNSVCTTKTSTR
Procedure, shortened: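 Read-out is the linear per-minute rise in fluorescence liberated from substrate, monitored for 5 min at 25° C and expressed as % activity. Substrate sat at Km, except for FXIa, which used 100 μM. IC50 values come from the concentration producing half-maximal inhibition.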

KLK1 = KLK1 (Homo sapiens, UniProt P06870); test: Related protease inhibition: KLK1 (fluorogenic substrate at Km); type: biochemical; conditions: class symbols per Table 18
Sequence of KLK1 (P06870 25-262): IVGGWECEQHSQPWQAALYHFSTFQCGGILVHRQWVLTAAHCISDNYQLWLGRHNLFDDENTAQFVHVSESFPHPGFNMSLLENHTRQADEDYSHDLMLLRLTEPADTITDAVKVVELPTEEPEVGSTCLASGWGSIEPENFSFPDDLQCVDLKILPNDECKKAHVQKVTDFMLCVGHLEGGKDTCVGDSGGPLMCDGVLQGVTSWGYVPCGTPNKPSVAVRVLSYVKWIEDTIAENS
Procedure, shortened: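 Each human protease was incubated with substrate and test compound over a concentration range; fluorescence release was then recorded for 5 min at 25° C. Rates were normalized to uninhibited enzyme (100%) to derive IC50.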

Trypsin = Trypsin (Homo sapiens, UniProt P07477); test: Related protease inhibition: Trypsin (fluorogenic substrate at Km); type: biochemical; conditions: class symbols per Table 18
Protocol: as §1

FXa = FXa (Homo sapiens, UniProt P00742); test: Related protease inhibition: FXa (fluorogenic substrate at Km); type: biochemical; conditions: class symbols per Table 18
Sequence of FXa (P00742 235-488 limits assumed): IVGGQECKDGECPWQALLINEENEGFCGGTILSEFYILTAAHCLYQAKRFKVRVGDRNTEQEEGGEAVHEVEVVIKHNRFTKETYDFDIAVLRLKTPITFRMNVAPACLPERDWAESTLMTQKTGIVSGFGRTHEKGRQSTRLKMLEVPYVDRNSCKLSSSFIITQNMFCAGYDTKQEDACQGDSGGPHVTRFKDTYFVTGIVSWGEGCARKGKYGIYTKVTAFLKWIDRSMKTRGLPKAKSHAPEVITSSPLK
Sequence of FXa (P00742 41-179 partner limits assumed): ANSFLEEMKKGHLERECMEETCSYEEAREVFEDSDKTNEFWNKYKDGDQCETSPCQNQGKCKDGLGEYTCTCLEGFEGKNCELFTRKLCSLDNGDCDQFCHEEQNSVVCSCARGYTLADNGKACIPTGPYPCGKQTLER
Protocol: as §1

Thrombin = Thrombin (Homo sapiens, UniProt P00734); test: Related protease inhibition: Thrombin (fluorogenic substrate at Km); type: biochemical; conditions: class symbols per Table 18
Protocol: as §1

[1] = Pharmacokinetics after single intravenous and single oral dose in rats; type: in vivo; conditions: rat, plasma, male Sprague-Dawley rats, single iv (nominal 1 mg/kg) and single po (nominal 5 mg/kg) dose; for half-life: Phoenix WinNonlin; for bioavailability: oral bioavailability, 10% DMSO/10% Cremophor EL/80% SWFI
Protocol: Pharmacokinetic studies of the compounds in Table 19 were performed to assess the pharmacokinetics following a single intravenous dose and a single oral dose in male Sprague-Dawley rats. Two rats were given a single intravenous dose of 1 mL/kg of a nominal 1 mg/ml (1 mg/kg) composition of test compound in 10% DMSO/10% Cremophor EL/80% SWFI vehicle. Two rats were given a single oral dose of 5 ml/kg of a nominal 1 mg/mL (5 mg/kg) composition of test compound in 10% DMSO/10% Cremophor EL/80% SWFI vehicle.
Following intravenous dosing, blood samples were collected over a period of 12 h. Sample times were 2, 5, 15 and 30 min then 1, 2, 4, 6, and 12 h. Following oral dosing, blood samples were collected over a period of 24 h. Sample times were 5, 15 and 30 min then 1, 2, 4, 6, 8, 12 and 24 h.
Following collection, blood samples were centrifuged and the plasma fraction analysed for concentration of test compound by LCMS. Oral bioavailability and half-life calculations from these studies were obtained using Phoenix WinNonlin (v8.0) and are shown below: […]

Sequence of Plasmin (P00747 581-810 limits assumed): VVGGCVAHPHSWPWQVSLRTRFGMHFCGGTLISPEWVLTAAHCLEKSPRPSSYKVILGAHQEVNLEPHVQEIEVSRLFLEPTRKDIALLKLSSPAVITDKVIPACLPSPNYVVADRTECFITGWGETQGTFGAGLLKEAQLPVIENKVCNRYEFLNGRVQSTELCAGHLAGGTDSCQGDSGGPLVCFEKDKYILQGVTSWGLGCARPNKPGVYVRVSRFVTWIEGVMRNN
Sequence of Plasmin (P00747 97-580 partner limits assumed): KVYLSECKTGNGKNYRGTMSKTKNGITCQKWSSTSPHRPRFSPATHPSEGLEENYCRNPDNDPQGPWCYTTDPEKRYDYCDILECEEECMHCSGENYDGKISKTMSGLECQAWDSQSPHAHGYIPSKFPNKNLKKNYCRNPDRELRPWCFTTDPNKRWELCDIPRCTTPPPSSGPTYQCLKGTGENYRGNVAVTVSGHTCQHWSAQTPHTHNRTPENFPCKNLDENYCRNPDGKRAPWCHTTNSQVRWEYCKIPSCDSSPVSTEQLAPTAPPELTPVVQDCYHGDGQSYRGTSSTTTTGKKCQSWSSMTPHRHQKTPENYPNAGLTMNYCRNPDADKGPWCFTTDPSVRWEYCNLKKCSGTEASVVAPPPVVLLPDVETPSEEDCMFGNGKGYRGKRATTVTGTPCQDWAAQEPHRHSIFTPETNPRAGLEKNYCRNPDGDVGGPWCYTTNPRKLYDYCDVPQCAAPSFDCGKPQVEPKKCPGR

SMILES | IC50 (Plasmin) | IC50 (Human Factor XIIa) | IC50 (Plasma Kallikrein) | IC50 (KLK1) | IC50 (Trypsin) | IC50 (FXa) | IC50 (Thrombin) | half-life [1] | bioavailability [1]
Nc1nccc2c(NCC34CC(COC5CCn6ccnc6C5)(C3)C4)cccc12 (single isomer, unassigned) [Example 1002.1, (S*)-N5-((3-(((5,6,7,8-tetrahydroimidazo[1,2-a]pyridin-7-yl)oxy)methyl)bicyclo[1.1.1]pentan-1-yl)methyl)isoquinoline-1,5-diamine] | – | 0.1 to 0.3 µM | > 40 µM | 3 to 10 µM | – | 10 to 40 µM | 3 to 10 µM | 7.36 h | 41%
Cn1ccc(OCC23CC(CNc4cccc5c(N)nccc45)(CO2)C3)cc1=O [Example 2205, 4-((4-(((1-aminoisoquinolin-5-yl)amino)methyl)-2-oxabicyclo[2.1.1]hexan-1-yl)methoxy)-1-methylpyridin-2(1H)-one] | > 40 µM | 0.3 to 1 µM | > 40 µM | 10 to 40 µM | > 40 µM | > 40 µM | > 40 µM | – | –
Nc1nccc2c(N3CCC4(CC(COc5ccn6ccnc6c5)C4)C3)cccc12 (single isomer, unassigned) [Example 8806, 5-(trans*-2-((imidazo[1,2-a]pyridin-7-yloxy)methyl)-6-azaspiro[3.4]octan-6-yl)isoquinolin-1-amine] | > 40 µM | 0.1 to 0.3 µM | > 40 µM | 10 to 40 µM | > 40 µM | > 40 µM | > 40 µM | – | –
Nc1nccc2c(NCC34CC(COc5ccc6nnc(C(F)F)n6c5)(CO3)C4)cccc12 [Example 6620, N5-((4-(((3-(difluoromethyl)-[1,2,4]triazolo[4,3-a]pyridin-6-yl)oxy)methyl)-2-oxabicyclo[2.1.1]hexan-1-yl)methyl)isoquinoline-1,5-diamine] | > 40 µM | 0.3 to 1 µM | > 40 µM | 3 to 10 µM | 3 to 10 µM | > 40 µM | > 40 µM | – | –
CN1Cc2cc(OCC34COC(CNc5cccc6c(N)nccc56)(C3)C4)ccc2C1=O [Example 6621, 5-((1-(((1-aminoisoquinolin-5-yl)amino)methyl)-2-oxabicyclo[2.1.1]hexan-4-yl)methoxy)-2-methylisoindolin-1-one] | > 40 µM | 0.1 to 0.3 µM | > 40 µM | 3 to 10 µM | > 40 µM | > 40 µM | > 40 µM | – | –
Cn1ccc(OCC23CC(CNc4cccc5c(N)nccc45)(CCO2)C3)cc1=O [Example 11001, 4-((5-(((1-aminoisoquinolin-5-yl)amino)methyl)-2-oxabicyclo[3.1.1]heptan-1-yl)methoxy)-1-methylpyridin-2(1H)-one] | > 40 µM | 0.1 to 0.3 µM | > 40 µM | 10 to 40 µM | 10 to 40 µM | > 40 µM | > 40 µM | – | –

Next, values leading:

IC50 (Plasmin) | IC50 (Human Factor XIIa) | IC50 (Plasma Kallikrein) | IC50 (KLK1) | IC50 (Trypsin) | IC50 (FXa) | IC50 (Thrombin) | half-life [1] | bioavailability [1] | SMILES
> 40 µM | 0.01 to 0.1 µM | > 40 µM | 1 to 3 µM | > 40 µM | > 40 µM | > 40 µM | – | – | Cn1ccc(OCC23CN(CCCc4ccccc4)C(CNc4cccc5c(N)nccc45)(C2)C3)cc1=O [Example 12019, 4-((1-(((1-Aminoisoquinolin-5-yl)amino)methyl)-2-(3-phenylpropyl)-2-azabicyclo[2.1.1]hexan-4-yl)methoxy)-1-methylpyridin-2(1H)-one]
> 40 µM | 0.01 to 0.1 µM | > 40 µM | 3 to 10 µM | 3 to 10 µM | > 40 µM | > 40 µM | – | – | Nc1nccc2c(NCC34CC(COc5ccn6cnnc6c5)(CCO3)C4)cccc12 [Example 10926, 5-N-[[5-([1,2,4]Triazolo[4,3-a]pyridin-7-yloxymethyl)-2-oxabicyclo[3.1.1]heptan-1-yl]methyl]isoquinoline-1,5-diamine]
10 to 40 µM | 0.001 to 0.01 µM | 3 to 10 µM | 3 to 10 µM | 10 to 40 µM | 1 to 3 µM | > 40 µM | – | – | Cc1cc(OCC23CN(C(=O)NCc4ccccc4)C(CNc4cccc5c(N)nccc45)(C2)C3)cc(=O)n1C [Example 12038, 1-(((1-aminoisoquinolin-5-yl)amino)methyl)-N-benzyl-4-(((1,6-dimethyl-2-oxo-1,2-dihydropyridin-4-yl)oxy)methyl)-2-azabicyclo[2.1.1]hexane-2-carboxamide]
> 40 µM | 0.01 to 0.1 µM | > 40 µM | 3 to 10 µM | 10 to 40 µM | 10 to 40 µM | > 40 µM | – | – | Nc1nccc2c(NCC34CC(COc5ccc6c(c5)CNC6=O)(CO3)C4)cccc12 [Example 6618, 5-[[1-[[(1-Aminoisoquinolin-5-yl)amino]methyl]-2-oxabicyclo[2.1.1]hexan-4-yl]methoxy]-2,3-dihydroisoindol-1-one]
3 to 10 µM | 0.001 to 0.01 µM | 10 to 40 µM | 1 to 3 µM | > 40 µM | 10 to 40 µM | > 40 µM | – | – | Cn1ccc(OCC23CN(C(=O)Nc4ccccc4)C(CNc4cccc5c(N)nccc45)(C2)C3)cc1=O [Example 12036, 1-(((1-aminoisoquinolin-5-yl)amino)methyl)-4-(((1-methyl-2-oxo-1,2-dihydropyridin-4-yl)oxy)methyl)-N-phenyl-2-azabicyclo[2.1.1]hexane-2-carboxamide]
– | 0.01 to 0.1 µM | – | – | – | – | – | 1.08 h | 0.4% | Cn1ccc(OCC23CN(C(=O)CCc4ccccc4)C(CNc4cccc5c(N)nccc45)(C2)C3)cc1=O [Example 12016, 4-((1-(((1-aminoisoquinolin-5-yl)amino)methyl)-2-(3-phenylpropanoyl)-2-azabicyclo[2.1.1]hexan-4-yl)methoxy)-1-methylpyridin-2(1H)-one]
> 40 µM | 0.01 to 0.1 µM | 10 to 40 µM | 1 to 3 µM | 10 to 40 µM | 10 to 40 µM | > 40 µM | – | – | Cc1cnc2ccc(OCC34CC(CNc5cccc6c(N)nccc56)(CO3)C4)cn12 [Example 2212, N5-((1-(((3-methylimidazo[1,2-a]pyridin-6-yl)oxy)methyl)-2-oxabicyclo[2.1.1]hexan-4-yl)methyl)isoquinoline-1,5-diamine]
> 40 µM | 0.01 to 0.1 µM | > 40 µM | 10 to 40 µM | 10 to 40 µM | 10 to 40 µM | > 40 µM | – | – | Cc1cc(OCC23CCOC(CNc4cccc5c(N)nccc45)(C2)C3)cc(=O)n1C [Example 10928, 4-((1-(((1-Aminoisoquinolin-5-yl)amino)methyl)-2-oxabicyclo[3.1.1]heptan-5-yl)methoxy)-1,6-dimethylpyridin-2(1H)-one]

From patent US20240327412A1, “FACTOR XIIA INHIBITORS” (KALVISTA PHARMACEUTICALS LIMITED, priority 2021, published 2024)
